For 28 molecules, IC50 results are on record in patent US20140073634A1 (Institute For Applied Cancer Science/The University of …, priority 2012, published 2014).

The assay has as its system 293T-HRE-GFP-luc cells. The experiment in a line: Cell-based reporter assay for IC50 determinations (HRE-luciferase, hypoxia). Conditions: 6 h, 6 hrs hypoxia (1% O2), luminescence. The method, then: Cell-Based Reporter Assay for IC50 Determinations
293T-HRE-GFP-luc cells were routinely maintained in DMEM media (high glucose version with GlutaMAX and HEPES, Gibco, catalog #10564) supplemented with 10% fetal bovine serum and 2 μg/mL puromycin (Invitrogen, catalog #A11138-03) using a humidified incubator (normoxia conditions consisting of 37° C., 5% CO2 and ambient O2).
In preparation for the reporter assay, cells were harvested and resuspended in DMEM media (high glucose version with GlutaMAX and HEPES) supplemented with 10% fetal bovine serum. Cells were inoculated into 384-well white Culturplates (Perkin Elmer catalog #6007680) at a density of 12,000 cells/well in a volume of […]. The microplates were incubated overnight (approximately 17-19 hours) at 37° C. with 5% CO2 and ambient O2. Stock solutions of the test compounds were prepared in DMSO (Sigma, Catalog #D2650) and serially diluted 1:3 using DMSO. Compounds were additionally diluted (1:50) with culturemedium and 10 µL were added per well to the Culturplate. Following a 30 min. incubation under normoxia conditions, the plates were incubated in hypoxia for 6 hrs. (37° C., 5% CO2 and 1% O2). Steadylite Plus (Perkin Elmer, catalog #6016751) was then added ([…]), the plates were mixed on an orbital shaker at room temperature in the dark for 15 min., and luminescence was measured using an Envision plate reader (Perkin Elmer). IC50 values were calculated using a four-parameter logistic curve fit. Results are shown below in Table 2; ND indicates no data.
(In general: In a reporter assay the amount or activity of a reporter protein is the signal.)
What is called IC50 is the concentration that gives 50% inhibition. A high value points to weaker potency in that assay. Consider `CC(C)(O)c1cccc(Cn2cc(-c3nnc(-c4ccc(S(=O)(=O)C(F)(F)F)cc4)o3)ccc2=O)c1` [Example 260, 1-{[3-(2-hydroxypropan-2-yl)phenyl]methyl}-5-[5-(4-trifluoromethanesulfonylphenyl)-1,3,4-oxadiazol-2-yl]-1,2-dihydropyridin-2-one], for which the half-inhibitory concentration (IC50) was in the range of 100 to 1000 nM.
To `CN1CCN(c2cc(Cn3cccc(C(=O)Nc4ccc(OC(F)(F)F)cc4)c3=O)ccn2)CC1` [Example 9, 1-methyl-4-(4-((2-oxo-3-((4-(trifluoromethoxy)phenyl)carbamoyl)pyridin-1(2H)-yl)methyl)pyridin-1-ium-2-yl)piperazin-1-ium bis-trifluoroacetate] belongs 100 to 1000 nM; to `O=c1ccc(-c2nc(-c3ccc(OC(F)(F)F)cc3)no2)cn1Cc1cccc(OCCO)c1` [Example 147, 1-{[3-(2-hydroxyethoxy)phenyl]methyl}-5-{3-[4-(trifluoromethoxy)phenyl]-1,2,4-oxadiazol-5-yl}-1,2-dihydropyridin-2-one], less than 100 nM.
Regarding `CN(C)C(=O)CCc1cccc(Cn2cc(-c3nc(-c4ccc(OC(F)(F)F)cc4)no3)ccc2=O)c1` [Example 49, N,N-Dimethyl-3-{3-[(2-oxo-5-{3-[4-(trifluoromethoxy)phenyl]-1,2,4-oxadiazol-5-yl}-1,2-dihydropyridin-1-yl)methyl]phenyl}propanamide], the half-inhibitory concentration (IC50) is less than 100 nM.
To `O=c1ccc(-c2nc(-c3ccc(OC(F)(F)F)cc3)no2)cn1Cc1ccnc(N2CCOCC2)c1` [Example 158, 1-{[2-(morpholin-4-yl)pyridin-4-yl]methyl}-5-{3-[4-(trifluoromethoxy)phenyl]-1,2,4-oxadiazol-5-yl}-1,2-dihydropyridin-2-one] belongs less than 100 nM; to `COCCOc1cccc(Cn2cc(-c3noc(-c4cnc(NC(C)C)nc4)n3)ccc2=O)c1` [Example 248, 1-{[3-(2-methoxyethoxy)phenyl]methyl}-5-(5-{2-[(propan-2-yl)amino]pyrimidin-5-yl}-1,2,4-oxadiazol-3-yl)-1,2-dihydropyridin-2-one], less than 100 nM; to `COC(=O)Cc1cccc(Cn2cc(-c3nc(-c4ccc(OC(F)(F)F)cc4)no3)ccc2=O)c1` [Example 155, methyl 2-{3-[(2-oxo-5-{3-[4-(trifluoromethoxy)phenyl]-1,2,4-oxadiazol-5-yl}-1,2-dihydropyridin-1-yl)methyl]phenyl}acetate], less than 100 nM.
`CCCNS(=O)(=O)c1ccc(-c2nc(-c3ccc(=O)n(Cc4cccc(OCCOC)c4)c3)no2)cc1` [Example 234, 4-[3-(1-{[3-(2-methoxyethoxy)phenyl]methyl}-6-oxo-1,6-dihydroylpyridin-3-yl)-1,2,4-oxadiazol-5-yl]-N-propylbenzene-1-sulfonamide] yielded an IC50 of 100 to 1000 nM.
The molecule `CS(=O)(=O)CCCOc1cccc(Cn2cc(-c3nnc(-c4ccc(OC(F)(F)F)cc4)o3)ccc2=O)c1` [Example 104] returned an IC50 of less than 100 nM.
To `O=c1ccc(-c2nc(-c3ccc(OC(F)(F)F)cc3)no2)cn1Cc1ccc(F)c(Br)c1` [Example 135, 1-[(3-bromo-4-fluorophenyl)methyl]-5-{3-[4-(trifluoromethoxy)phenyl]-1,2,4-oxadiazol-5-yl}-1,2-dihydropyridin-2-one] belongs 100 to 1000 nM; to `COCCOc1cccc(Cn2cc(-c3noc(-c4ccc(C5=CCSCC5)cc4)n3)ccc2=O)c1` [Example 209, 5-{5-[4-(3,6-dihydro-2H-thiopyran-4-yl)phenyl]-1,2,4-oxadiazol-3-yl}-1-{[3-(2-methoxyethoxy)phenyl]methyl}-1,2-dihydropyridin-2-one], less than 100 nM.
Regarding `COCCOc1cccc(Cn2cc(-c3noc(-c4ccc(S(=O)(=O)N(C)C)cc4)n3)ccc2=O)c1` [Example 216, 4-[3-(1-{[3-(2-methoxyethoxy)phenyl]methyl}-6-oxo-1,6-dihydropyridin-3-yl)-1,2,4-oxadiazol-5-yl]-N,N-dimethylbenzene-1-sulfonamide], the concentration for half-maximal inhibition (IC50) was 100 to 1000 nM.
For `Cc1cnc(-c2nc(-c3ccc(C(C)(C)C)cc3)no2)nc1Cc1cccc(N2CCN(C)CC2)c1` [Example 89, 3-(4-(Tert-butyl)phenyl)-5-(5-methyl-4-(3-(4-methylpiperazin-1-yl)benzyl)pyrimidin-2-yl)-1,2,4-oxadiazole], the half-inhibitory concentration (IC50) is less than 100 nM.
To `CN1CCN(c2cccc(Cn3cc(-c4nc(-c5ccc(OC(F)(F)F)cc5)no4)ccc3=O)c2)CC1` [Example 116, 1-(3-(4-methylpiperazin-1-yl)benzyl)-5-(3-(4-(trifluoromethoxy)phenyl)-1,2,4-oxadiazol-5-yl)pyridin-2(1H)-one] belongs less than 100 nM.
In the case of `Cc1ccc(-c2nc(-c3ccc(OC(F)(F)F)cc3)no2)c(=O)n1Cc1cccc(C(=O)N(C)C)c1` [Example 128, N,N-dimethyl-3-((6-methyl-2-oxo-3-(3-(4-(trifluoromethoxy)phenyl)-1,2,4-oxadiazol-5-yl)pyridin-1(2H)-yl)methyl)benzamide] it was 100 to 1000 nM.
To `CNc1ncc(-c2nc(-c3ccc(=O)n(Cc4cccc(OCCOC)c4)c3)no2)cn1` [Example 245, 1-{[3-(2-methoxyethoxy)phenyl]methyl}-5-{5-[2-(methylamino)pyrimidin-5-yl]-1,2,4-oxadiazol-3-yl}-1,2-dihydropyridin-2-one] belongs 100 to 1000 nM; to `COCCOc1cccc(Cn2nc(-c3nc(-c4ccc(OC(F)(F)F)cc4)no3)ccc2=O)c1` [Example 177, 2-{[3-(2-methoxyethoxy)phenyl]methyl}-6-{3-[4-(trifluoromethoxy)phenyl]-1,2,4-oxadiazol-5-yl}-2,3-dihydropyridazin-3-one], less than 100 nM.
`COCCOc1cccc(Cn2cc(-c3noc(-c4ccc5c(c4)CCO5)n3)ccc2=O)c1` [Example 228, 5-[5-(2,3-dihydro-1-benzofuran-5-yl)-1,2,4-oxadiazol-3-yl]-1-{[3-(2-methoxyethoxy)phenyl]methyl}-1,2-dihydropyridin-2-one] returned an IC50 of 100 to 1000 nM.
In the case of `CC(C)(O)c1cccc(Cn2cc(-c3noc(-c4ccc(C5CCOCC5)cc4)n3)ccc2=O)c1` [Example 214, 1-{[3-(2-hydroxypropan-2-yl)phenyl]methyl}-5-{5-[4-(oxan-4-yl)phenyl]-1,2,4-oxadiazol-3-yl}-1,2-dihydropyridin-2-one] it was less than 100 nM; in that of `COCCOc1cccc(Cn2cc(-c3nc(-c4ccc(OC(F)(F)F)cc4)no3)ccc2=O)c1` [Example 33, 1-{[3-(2-Methoxyethoxy)phenyl]methyl}-5-{3-[4-(trifluoromethoxy)phenyl]-1,2,4-oxadiazol-5-yl}-1,2-dihydropyridin-2-one], 100 to 1000 nM; in that of `CNC(=O)c1cccc(Cn2cc(-c3nc(-c4ccc(OC(F)(F)F)cc4)no3)ccc2=O)c1` [Example 133, N-methyl-3-[(2-oxo-5-{3-[4-(trifluoromethoxy)phenyl]-1,2,4-oxadiazol-5-yl}-1,2-dihydropyridin-1-yl)methyl]benzamide], less than 100 nM.
To `CS(=O)(=O)CCCOc1cccc(Cn2cc(-c3noc(-c4ccc(N5CCOCC5)cc4)n3)ccc2=O)c1` [Example 204, 1-{[3-(3-methanesulfonylpropoxy)phenyl]methyl}-5-{5-[4-(morpholin-4-yl)phenyl]-1,2,4-oxadiazol-3-yl}-1,2-dihydropyridin-2-one] belongs less than 100 nM; to `CS(=O)(=O)C1CCN(c2cccc(Cn3cc(-c4noc(-c5ccc(N6CCOCC6)cc5)n4)ccc3=O)c2)CC1` [Example 77, 1-(3-(4-(Methylsulfonyl)piperidin-1-yl)benzyl)-5-(5-(4-morpholinophenyl)-1,2,4-oxadiazol-3-yl)pyridin-2(1H)-one], less than 100 nM; to `CS(=O)(=O)C1CCN(c2cc(Cn3nc(-c4nc(-c5ccc(OC(F)(F)F)cc5)no4)ccc3=O)ccn2)CC1` [Example 184, 2-{[2-(4-methanesulfonylpiperidin-1-yl)pyridin-4-yl]methyl}-6-{3-[4-(trifluoromethoxy)phenyl]-1,2,4-oxadiazol-5-yl}-2,3-dihydropyridazin-3-one], less than 100 nM.
Molecule `CN1CCN(c2cc(Cn3cc(-c4nc(-c5ccc(OC(F)(F)F)cc5)no4)ccc3=O)ccc2F)CC1` [Example 137, 1-{[4-fluoro-3-(4-methylpiperazin-1-yl)phenyl]methyl}-5-{3-[4-(trifluoromethoxy)phenyl]-1,2,4-oxadiazol-5-yl}-1,2-dihydropyridin-2-one] gave an IC50 of less than 100 nM.
Turning to `COCCOc1cccc(Cn2cc(-c3noc(-c4cnc(N5CCOCC5)nc4)n3)ccc2=O)c1` [Example 242, 1-{[3-(2-methoxyethoxy)phenyl]methyl}-5-{5-[2-(morpholin-4-yl)pyrimidin-5-yl]-1,2,4-oxadiazol-3-yl}-1,2-dihydropyridin-2-one], the half-inhibitory concentration (IC50) is less than 100 nM.
Regarding `O=c1ccc(-c2nc(-c3ccc(OC(F)(F)F)cc3)no2)nn1Cc1cccc(N2CCOCC2)c1` [Example 14, 2-(3-Morpholinobenzyl)-6-(3-(4-(trifluoromethoxy)phenyl)-1,2,4-oxadiazol-5-yl)pyridazin-3(2H)-one], the IC50 is less than 100 nM.
To `COCCOc1cccc(Cn2cc(-c3noc(-c4ccc(C5CC5)cc4)n3)ccc2=O)c1` [Example 67, 5-(5-(4-Cyclopropylphenyl)-1,2,4-oxadiazol-3-yl)-1-(3-(2-methoxyethoxy)benzyl)pyridin-2(1H)-one] belongs less than 100 nM.
